We go through 13 compounds from US20240294551A1 (AMGEN INC., priority 2022, published 2024).

Read-outs that look alike come from different tables or passages of the source.

The target in assay [1] is GDP-bound KRAS protein (aa 1-169), containing both G12D and C118A amino acid substitutions (Homo sapiens (Human), UniProt P01116, C118A/G12D). The experiment in a line: KRAS G12D Coupled Nucleotide Exchange Assay. The format is biochemical. As to conditions: read-out: KRAS G12D Coupled Exchange IC50.
GDP-bound KRAS protein (aa 1-169), containing both G12D and C118A amino acid substitutions, sequence (P01116 other isoform, or with tags, fused parts or gaps G12D/C118A): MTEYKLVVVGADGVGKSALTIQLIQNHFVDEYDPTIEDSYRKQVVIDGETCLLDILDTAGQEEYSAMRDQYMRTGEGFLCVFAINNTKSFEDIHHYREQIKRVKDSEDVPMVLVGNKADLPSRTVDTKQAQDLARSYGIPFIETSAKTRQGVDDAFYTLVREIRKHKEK
Another assay relates to AsPC-1 cells. Kind of assay: AsPC-1 CTG Assay (CellTiter-Glo cell viability). The format is cell-based, human. The conditions noted are these: AsPC-1, 72 h, first value of the cell, read-out: G12D/C/V Cell Proliferation CTG (72 h) AsPC-1. The method, boiled down: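 Human pancreatic AsPC-1 or colon SW620 cells in RPMI 1640 with 10% FBS, seeded overnight, then exposed to serially diluted compound for 72 h at 37 °C. CellTiter-Glo luminescence normalized to DMSO control; IC50 from a 4-parameter logistic model.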

Assay [2] relates to Phosphorylation of ERK1/2 in AsPC-1 cells. The experiment in a line: Phospho-ERK1/2 MSD Assay. The format is cell-based, human. The conditions noted are these: read-out: 2 h p-ERK (AsPC-1 cells), IC50. An outline of the steps:
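Read-out: MSD electrochemiluminescent detection of phosphorylated ERK1/2 in whole-cell lysates, fitted to a 4-parameter logistic curve for IC50. Prior to lysis, AsPC-1 cells (25,000 per well) received a 2 h compound dose-response at 37 °C.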

Assay [3] addresses His-tagged KRAS G12D protein (Homo sapiens (Human), UniProt P01116, G12D). Kind of assay: KRAS G12D TR-FRET Assay. As to conditions: read-out: KRAS G12D Binding IC50. The format is binding. An outline of the steps: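 His-tagged KRAS G12D (diluted to 20 nM in pH 7.4 HEPES buffer with 10 mM MgCl2 and 10 μM GDP) was preincubated with titrated compound for 30 min at room temperature. Biotinylated KRPep-2d peptide (diluted to 20 nM) was then added for 1 h, and displacement was monitored by TR-FRET.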

His-tagged KRAS G12D protein, sequence (P01116 other isoform, or with tags, fused parts or gaps G12D): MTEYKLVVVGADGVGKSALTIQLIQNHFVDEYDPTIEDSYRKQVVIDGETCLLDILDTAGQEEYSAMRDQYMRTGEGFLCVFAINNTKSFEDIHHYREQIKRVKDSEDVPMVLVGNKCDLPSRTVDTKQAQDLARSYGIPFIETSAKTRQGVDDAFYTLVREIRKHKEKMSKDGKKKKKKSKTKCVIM

Regarding `O=C1OCCCc2c(Cl)cccc2-c2ncc3c(nc(OC[C@@]45CCCN4C[C@H](F)C5)nc3c2F)N2CCOC[C@H](C2)O1` [Example 186, (23S)-15-chloro-29-fluoro-4-(((2R,7aS)-2-fluorotetrahydro-1H-pyrrolo[1,2-a]pyrrol-7a(5H)-yl)methoxy)-20,22,25-trioxa-1,3,5,9-tetraazapentacyclo[21.4.1.1~6,10~.0~2,7~.0~11,16~]nonacosa-2,4,6,8,10(29),11,13,15-octaen-21-one], the IC50 was found to be 9 nM in assay [1], 1950 nM with AsPC-1 cells, 200 nM in assay [2] (2 h) and 12 nM in assay [3].
Turning to `Cc1cc2[nH]ncc2c2c1CCOC(=O)O[C@H]1C[C@]3(CCCN(C3)c3nc(OC[C@@]45CCCN4C[C@H](F)C5)nc4c(F)c-2ncc34)C1` [Example 193, (1R,3S)-32-fluoro-24-(((2R,7aS)-2-fluorotetrahydro-1H-pyrrolo[1,2-a]pyrrol-7a(5H)-yl)methoxy)-10-methyl-4,6-dioxa-13,14,19,23,25,27-hexaazaheptacyclo[25.3.1.1~1,3~.1~18,22~.0~9,17~.0~12,16~.0~21,26~]tritriaconta-9,11,14,16,18(32),19,21,23,25-nonaen-5-one], the IC50 in assay [1] was determined as 24 nM; in the assay with AsPC-1 cells (Homo sapiens, ASPC1, 72 h), 60 nM; in assay [2] (Homo sapiens, ASPC1, 2 h) it was 23.9 nM; in assay [3] it was 49 nM.
The corresponding values for `Cc1cc2[nH]ncc2c2c1CCCOC(=O)O[C@@H]1CCCCN(C1)c1nc(OC[C@@H]3CCCN3C)nc3c(F)c-2ncc13` [Example 206, (26R)-32-fluoro-18-methyl-4-(((2S)-1-methyl-2-pyrrolidinyl)methoxy)-23,25-dioxa-1,3,5,9,14,15-hexaazahexacyclo[24.4.1.1~6,10~.0~2,7~.0~11,19~.0~12,16~]dotriaconta-2,4,6,8,10(32),11,13,16,18-nonaen-24-one] are 9 nM, 2230 nM, 211 nM and 14 nM.
On to `CC(=O)n1ncc2c3c(c(Cl)cc21)CCCOC(=O)O[C@@H]1COCCN(C1)c1nc(OC[C@@]24CCCN2C[C@H](F)C4)nc2c(F)c-3ncc12` [Example 213, (26S)-15-Acetyl-18-chloro-32-fluoro-4-(((2R,7aS)-2-fluorotetrahydro-1H-pyrrolo[1,2-a]pyrrol-7a(5H)-yl)methoxy)-23,25,28-trioxa-1,3,5,9,14,15-hexaazahexacyclo[24.4.1.1˜6,10˜.0˜2,7˜.0˜11,19˜.0˜12,16˜]dotriaconta-2,4,6(32),7,9,11,13,16,18-nonaen-24-one], for which the IC50 in assay [1] stood at 15 nM; in the assay on AsPC-1 cells (Homo sapiens, ASPC1, 72 h), 5 nM; in assay [2] (Homo sapiens, ASPC1, 2 h) it was 4.9 nM; in assay [3] it was 46 nM.
For `Fc1c2ncc3c(nc(OC[C@@]45CCCN4C[C@H](F)C5)nc13)N1CC(COCCCCc3c(Cl)cc4[nH]ncc4c3-2)CC2(CC2)C1` (stereo partly shown) [Example 228], the IC50 is 8 nM in assay [1]; 487 nM in the assay on AsPC-1 cells (Homo sapiens, ASPC1, 72 h); 181 nM in assay [2] (Homo sapiens, ASPC1, 2 h); 12 nM in assay [3].
Taken in the same sequence, the figures for `Cc1cc2[nH]ncc2c2c1CCC[C@@H](O)CC[C@@H]1CCCN(C1)c1nc(OC[C@@]34CCCN3C[C@H](F)C4)nc3c(F)c-2ncc13` [Example 237, (14R,17S)-30-Fluoro-24-(((2R,7aS)-2-fluorotetrahydro-1H-pyrrolo[1,2-a]pyrrol-7a(5H)-yl)methoxy)-9-methyl-5,6,21,23,25,29-hexaazahexacyclo[24.3.1.1˜17,21˜.0˜2,10˜.0˜3,7˜.0˜22,27˜]hentriaconta-1(30),2,4,7,9,22,24,26,28-nonaen-14-ol] were 10 nM, 5000 nM, 279 nM and 19 nM.
Taken in the same sequence, the figures for `Cc1cc2[nH]ncc2c2c1CCC[C@H](O)CC[C@H]1CCCN(C1)c1nc(OC[C@@]34CCCN3C[C@H](F)C4)nc3c(F)c-2ncc13` [Example 238, (14S,17R)-30-fluoro-24-(((2R,7aS)-2-fluorotetrahydro-1H-pyrrolo[1,2-a]pyrrol-7a(5H)-yl)methoxy)-9-methyl-5,6,21,23,25,29-hexaazahexacyclo[24.3.1.1˜17,21˜.0˜2,10˜.0˜3,7˜.0˜22,27˜]hentriaconta-1(30),2,4,7,9,22,24,26,28-nonaen-14-ol] were 24 nM, 5000 nM, 861 nM and 45 nM.
The corresponding values for `Fc1cc2[nH]ncc2c2c1CCCCOC[C@@H]1CCCCN(C1)c1nc(OC[C@@]34CCCN3C[C@H](F)C4)nc3c(F)c-2ncc13` [Example 239, (26R)-18,32-difluoro-4-(((2R,7aS)-2-fluorotetrahydro-1H-pyrrolo[1,2-a]pyrrol-7a(5H)-yl)methoxy)-24-oxa-1,3,5,9,14,15-hexaazahexacyclo[24.4.1.1~6, 10~.0~2,7~.0~11,19~.0~12,16~]dotriaconta-2,4,6(32),7,9,11,13,16,18-nonaene] are 5 nM, 527 nM, 82.9 nM and 6 nM.
In the case of `Fc1c2ncc3c(nc(OC[C@@]45CCCN4C[C@H](F)C5)nc13)N1CCC[C@H](C1)c1noc(n1)CCCc1c(Cl)cc3[nH]ncc3c1-2` [Example 247, (18R)-9-chloro-31-fluoro-25-(((2R,7aS)-2-fluorotetrahydro-1H-pyrrolo[1,2-a]pyrrol-7a(5H)-yl)methoxy)-15-oxa-5,6,16,22,24,26,30,33-octaazaheptacyclo[25.3.1.1~14,17~.1~18,22~.0~2,10~.0~3,7~.0~23,28~]tritriaconta-1(31),2,4,7,9,14(33),16,23,25,27,29-undecaene], the IC50 in assay [1] was 5 nM; in the assay with AsPC-1 cells (Homo sapiens, ASPC1, 72 h) it was 446 nM; in assay [2] (Homo sapiens, ASPC1, 2 h) it was 31.2 nM; in assay [3], 9 nM.
Regarding `Cc1cc2[nH]ncc2c2c1C[C@@H](C)CCOC[C@@H]1CCCN(C1)c1nc(OC[C@@]34CCCN3C[C@H](F)C4)nc3c(F)c-2ncc13` [Example 250, (12R,17R)-30-fluoro-24-(((2R,7aS)-2-fluorotetrahydro-1H-pyrrolo[1,2-a]pyrrol-7a(5H)-yl)methoxy)-9,12-dimethyl-15-oxa-5,6,21,23,25,29-hexaazahexacyclo[24.3.1.1~17,21~.0~2,10~.0~3,7~.0~22,27~]hentriaconta-1(30),2,4,7,9,22,24,26,28-nonaene], the IC50 in assay [1] was determined as 6 nM; in the assay with AsPC-1 cells (Homo sapiens, ASPC1, 72 h), 1060 nM; in assay [2] (Homo sapiens, ASPC1, 2 h), 128 nM; in assay [3], 13 nM.
Consider `C[C@@H]1CCOC[C@H]2CN(CCO2)c2nc(OC[C@@]34CCCN3C[C@H](F)C4)nc3c(F)c(ncc23)-c2c(c(Cl)cc3[nH]ncc23)C1` [Example 253, (12S,17R)-9-chloro-30-fluoro-24-(((2R,7aS)-2-fluorotetrahydro-1H-pyrrolo[1,2-a]pyrrol-7a(5H)-yl)methoxy)-12-methyl-15,18-dioxa-5,6,21,23,25,29-hexaazahexacyclo[24.3.1.1~17,21~.0~2,10~.0~3,7~.0~22,27~]hentriaconta-1(30),2,4,7,9,22,24,26,28-nonaene], for which the IC50 turned out to be 6 nM in assay [1]; 1200 nM in the assay with AsPC-1 cells (Homo sapiens, ASPC1, 72 h); 67.8 nM in assay [2] (Homo sapiens, ASPC1, 2 h); 9 nM in assay [3].
As to `Fc1c2ncc3c(nc(OC[C@@]45CCCN4C[C@H](F)C5)nc13)N1CC[C@@H](COCCCCc3c(Cl)cc4[nH]ncc4c3-2)C1` [Example 254, (17R)-9-chloro-29-fluoro-23-(((2R,7aS)-2-fluorotetrahydro-1H-pyrrolo[1,2-a]pyrrol-7a(5H)-yl)methoxy)-15-oxa-5,6,20,22,24,28-hexaazahexacyclo[23.3.1.1~17,20~.0~2,10~.0~3,7~.0~21,26~]triaconta-1(29),2,4,7,9,21,23,25,27-nonaene], the IC50 in assay [1] is 12 nM; with AsPC-1 cells (Homo sapiens, ASPC1, 72 h), 3970 nM; in assay [2] (Homo sapiens, ASPC1, 2 h) it was 545 nM; in assay [3], 19 nM.
With `O=C1N[C@@H]2CCCCN(C2)c2nc(OC[C@@]34CCCN3C[C@H](F)C4)nc3c(F)c(ncc23)-c2c(c(Cl)cc3[nH]ncc23)CCCO1` [Example 256, (26R)-18-chloro-32-fluoro-4-(((2R,7aS)-2-fluorotetrahydro-1H-pyrrolo[1,2-a]pyrrol-7a(5H)-yl)methoxy)-23-oxa-1,3,5,9,14,15,25-heptaazahexacyclo[24.4.1.1~6, 10~.0~2,7~.0~11,19~.0~12,16~]dotriaconta-2,4,6(32),7,9,11,13,16,18-nonaen-24-one], the IC50 in assay [1] was found to be 5 nM; in the assay with AsPC-1 cells (Homo sapiens, ASPC1, 72 h), 229 nM; in assay [2] (Homo sapiens, ASPC1, 2 h), 9.4 nM; in assay [3], 4 nM.
